Measurements from paper PMC7925462, “A synthetic peptide as an allosteric inhibitor of human arginase I and II” (Molecular Biology Reports, 2021).
Read-outs that look alike come from different tables or passages of the source. Ends that are not written are not given here.

Tests used:
human arginase I (hargI) [1] = target: T1, human arginase I (hargI) (Homo sapiens, UniProt P05089); assay: Enzymatic assay, L-arginine hydrolysis by hargI, colorimetric urea; format: biochemical; details: called preliminary data, read-out: IC50 (abstract)
T1 construct: TEV protease site and linker (N); made in house; host or cells: E. coli BL21 (DE3) RIL
T1 sequence (P05089 with tags, fused parts or gaps): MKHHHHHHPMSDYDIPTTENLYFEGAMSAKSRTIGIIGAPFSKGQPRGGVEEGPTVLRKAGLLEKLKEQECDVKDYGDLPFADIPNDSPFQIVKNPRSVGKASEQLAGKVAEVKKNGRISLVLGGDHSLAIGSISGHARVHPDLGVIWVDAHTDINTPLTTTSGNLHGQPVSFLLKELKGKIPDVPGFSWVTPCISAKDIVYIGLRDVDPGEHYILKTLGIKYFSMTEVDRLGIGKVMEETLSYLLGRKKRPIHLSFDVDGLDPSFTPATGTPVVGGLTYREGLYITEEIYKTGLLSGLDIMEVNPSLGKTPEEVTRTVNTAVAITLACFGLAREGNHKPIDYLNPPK
Method: (§1) The kinetic properties of hargI and II were tested according to previously reported methods with minor modifications. The Arginases activity was assessed by colorimetric measurement of produced urea. The assays were performed in 96-well plates (Greiner) using Assay buffer [100 mM Na-phosphate pH 7.4, 130 mM NaCl]. Final volume of each reaction was 60 μl, the final concentration of hargI and hargII was 50 nM in each well. Samples containing no hargI or hargII were used as negative control. The peptide inhibitor was added based on experiment setting, dose ranging from 20 mM to 9.8 μM. Each sample was pre-incubated for 30 min in a 37 °C shaking incubator (100 rpm) and the reactions were started by adding concentrated substrate buffer [Assay buffer supplemented with 100 mM L-arginine, 500 mM Glycine and 1.25 mM MnCl2]. Reactions were performed in a shaking incubator at 37 °C and quenched after 1 h using a Stop mix. The Stop mix consisted of two volumes of freshly prepared solution A [Antipyrine/ H2SO4 reagent: 5 g/L of antipyrine(1,5-dimethyl-2-phenyl-3-pyrazolone) in 50%(v/v) sulfuric acid] and one volume solution B [Oxime reagent: 0.8 g 2,3-Butanedione monoxime in 100 ml of 5%(v/v) acetic acid]. […] The color turns to brown and changes in optical density (OD) at 466 nm reflecting the production of urea were quantified using the Synergy H1 Hybrid Reader (BioTek).

human arginase I (hargI) [2] = target: T1, human arginase I (hargI); assay: Kinetic assay of L-arginine metabolism in absence/presence of peptide; format: biochemical; details: 1 mM peptide REGNH, 40 mM L-arginine
Method: as §1, with “(BioTek). […]” for “(BioTek).”

[3] = target: T2, human arginase II (hargII) (Homo sapiens, UniProt P78540); assay: Enzymatic assay, L-arginine hydrolysis by hargII, colorimetric urea; format: biochemical; details: called preliminary data, read-out: IC50 (abstract)
T2 construct: The human arginase II (aa23-354, 38.3kD) fused to a His6-tag at the N-terminal; purchased USBiological Life Science, Salem, USA
T2 sequence (P78540 23-354): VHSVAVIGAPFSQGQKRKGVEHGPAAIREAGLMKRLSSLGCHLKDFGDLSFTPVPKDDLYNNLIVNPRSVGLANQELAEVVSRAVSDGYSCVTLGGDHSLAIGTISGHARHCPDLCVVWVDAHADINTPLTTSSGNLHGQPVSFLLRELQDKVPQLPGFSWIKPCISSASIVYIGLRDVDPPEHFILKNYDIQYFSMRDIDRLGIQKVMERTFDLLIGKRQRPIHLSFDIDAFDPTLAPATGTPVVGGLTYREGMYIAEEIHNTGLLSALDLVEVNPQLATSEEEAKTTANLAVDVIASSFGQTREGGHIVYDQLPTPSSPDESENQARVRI
Method: The human arginase II (aa23-354, 38.3kD) fused to a His6-tag at the N-terminal was purchased and supplied as a liquid aliquot (20 mM Tris-HCl, pH 8.0, 10% (v/v) glycerol) at −20 °C (USBiological Life Science, Salem, USA). This stock was thaw on ice, followed by high speed centrifuging before diluting to certain concentration for activity assay.
as §1, with “MnCl2].” for “MnCl2]. Reactions were performed in a shaking incubator at 37 °C and quenched after 1 h using a Stop mix. The Stop mix consisted of two volumes of freshly prepared solution A [Antipyrine/ H2SO4 reagent: 5 g/L of antipyrine(1,5-dimethyl-2-phenyl-3-pyrazolone) in 50%(v/v) sulfuric acid] and one volume solution B [Oxime reagent: 0.8 g 2,3-Butanedione monoxime in 100 ml of 5%(v/v) acetic acid].”

[4] = target: T3, human arginase I (wild-type hargI, His6-tagged) (Homo sapiens, UniProt P05089); assay: MST binding assay, hargI
T3 construct: TEV protease site and linker (N); made in house; host or cells: E. coli BL21 (DE3) RIL
T3 sequence (P05089 with tags, fused parts or gaps): T1 sequence (P05089 with tags, fused parts or gaps)
Method: Microscale thermophoresis (MST)
MST measurements were performed on a Monolith NT.115 instrument (Nanotemper Technologies, GmbH). Purified His6-tagged hargI sample was labeled with the Monolith His-Tag Labeling Kit RED-tris-NTA (MO-L008) according to the protocol (Nanotemper Technologies, GmbH). All measurements were performed in triplicate in MST buffer (25 mM Tris-HCl pH 7.5, 125 mM NaCl, 1% Glycerol and 1 mM BME, 0.05% Tween-20) using standard capillaries (K002, Nanotemper Technologies, GmbH). Labeled hargI was used at a final concentration of 50 nM according to the manufacturer’s recommendations. All measurements were performed at 60% LED excitation power and 40% MST power, Laser-On time was 30 s, Laser-Off time 5 s. The peptide REGNH was titrated in 1:1 dilution starting at 2.82 μM. All binding reactions were incubated for 10 min at room temperature followed by centrifugation at 20,000 g before loading into the capillaries.
The ability of the synthetic peptide analogue (REGNH) to bind to wild-type hargI and II was examined using Microscale Thermophoresis (MST) (Nanotemper, GmbH). […] After 10 min incubation at room temperature the dose-response MST curve was measured, which yielded a clear binding curve with determined dissociation constant of 177 ± 50 μM for hargI, and 196 ± 25 μM for hargII (Fig. 2).

human arginase I (hargI) [5] = target: T1, human arginase I (hargI); assay: Dose-response of ABH on hargI in presence/absence of REGNH, L-arginine metabolism; format: biochemical
[6] = tested on: Arg308Ala mutant of human arginase I; details: low concentrations of guanidinium chloride, ref [17], cited from earlier work
Description: A promising avenue in arginase inhibitors research is a structural feature that shared by all mammalian arginases – the S-shaped motif at the C-terminal. The functional significance of this motif is that it accounts for 54% of intersubunit contacts. In Human Arginase I (hargI) the S-shaped motif is comprised by residues 304–322, where Arg308 is thought to play the major role, as it forms a salt bridge with Glu262. In rat liver arginase I, Arg308 also forms an intermonomer salt bridge with Asp204 from an adjacent subunit. The importance of Arg308 is supported by the di ... || The aim of the described research is to examine the effect of the peptide analogue REGNH (residue 308–312), which comprises part of the S-shape motif from the C-terminal (residue 308–322) on hargI. A previous study has shown that the C terminal tail plays a critical role in retaining trimeric protein assembly, as well as in the cooperative response of arginase in L-arginine metabolism.

[7] = tested on: wild-type and truncated (terminating at Arg308 or Ala308) arginase I; details: wild-type and truncated species terminating at Arg308 or Ala308, even at higher concentrations; ref [17]; cited from earlier work
Description: A promising avenue in arginase inhibitors research is a structural feature that shared by all mammalian arginases – the S-shaped motif at the C-terminal. The functional significance of this motif is that it accounts for 54% of intersubunit contacts. In Human Arginase I (hargI) the S-shaped motif is comprised by residues 304–322, where Arg308 is thought to play the major role, as it forms a salt bridge with Glu262. In rat liver arginase I, Arg308 also forms an intermonomer salt bridge with Asp204 from an adjacent subunit. The importance of Arg308 is supported by the di ...

[8] = target: T4, human arginase II (aa23-354, 38.3kD) (human, UniProt P78540 23-354, RED-tris-NTA dye labeled in the MST assay); assay: MST; Monolith NT.115; His6-tagged arginase labeled with RED-tris-NTA at 50 nM, peptide REGNH titrated in 1:1 dilution; 25 mM Tris-HCl pH 7.5, 125 mM NaCl, 1% glycerol, 1 mM BME, 0.05% Tween-20; 10 min incubation at room temperature; triplicate; details: both partners purified
T4 construct: human arginase II, aa23-354, 38.3kD, fused to a His6-tag at the N-terminal; also called hargII; source: bought: USBiological Life Science, Salem, USA; not shown: His6, N-terminal, kept
T4 sequence (looked up): T2 sequence (P78540 23-354)

human arginase I [9] = target: T5, human arginase I (human, UniProt P05089 1-322, RED-tris-NTA dye on the His6-tag (Monolith His-Tag Labeling Kit RED-tris-NTA) in the MST assay); assay: as above; details: both partners purified
T5 construct: human arginase I, full-length gene amplified from a commercial template plasmid (dnasu.org), cloned in pETM11; His6-tag and TEV protease site at the N-terminus; A TEV protease site lies between the His6-tag and the protein; no cleavage is described; also called hargI; hArg1; source: E. coli BL21 (DE3) RIL, purified (Ni-NTA, SEC); not shown: His6, N-terminal, kept
T5 sequence (looked up): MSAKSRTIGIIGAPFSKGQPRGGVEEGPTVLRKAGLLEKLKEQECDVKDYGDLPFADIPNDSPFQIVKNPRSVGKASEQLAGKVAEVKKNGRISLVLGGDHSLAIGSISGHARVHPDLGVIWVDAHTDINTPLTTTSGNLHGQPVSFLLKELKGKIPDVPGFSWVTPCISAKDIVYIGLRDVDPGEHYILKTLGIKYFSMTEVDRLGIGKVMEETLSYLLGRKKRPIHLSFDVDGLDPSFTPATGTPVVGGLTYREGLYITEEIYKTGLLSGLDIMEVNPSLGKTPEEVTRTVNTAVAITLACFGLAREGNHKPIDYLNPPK

[10] = target: T4, human arginase II (aa23-354, 38.3kD); assay: cell-based or functional assay
human arginase I [11] = target: T5, human arginase I; assay: cell-based or functional assay

For REGNH [REGNH], the IC50 (human arginase I (hargI) [1]) was 2400 ± 300 µM, the “lowering of activity with respect to apo-enzyme” value (human arginase I (hargI) [2]) was “≈ 15%” and the IC50 [3] was 1800 ± 100 µM.

In the case of `N[C@@H](CCCCB(O)O)C(=O)O` [ABH, 2-(S)-amino-6-boronohexanoic acid], the Kd ([4]; MST, ABH to hargI, MST buffer pH 7.5) is reported as about 0.6 µM, the “binding to hargI” value ([4]; dose-dependent MST assay) is reported as “strong binding” and the IC50 (human arginase I (hargI) [5]; ABH on hargI, printed in parentheses after 'those of the apo-enzyme', the comparison is with hargI + 1 mM REGNH) is reported as 1 ± 0.03 µM. For the same molecule, the “inhibition of hargI by ABH in presence of REGNH compared with apo-enzyme” value (human arginase I (hargI) [5]; hargI supplemented with 1 mM peptide REGNH) was “comparable inhibition constants to those of the apo-enzyme”.

For `Cl.N=C(N)N` [guanidinium chloride], the “activity of Arg308Ala mutant with Gdn+” value [6] is listed as “significantly increased activity”, the “trimeric assembly and substrate cooperativity of Arg308Ala mutant with Gdn+” value [6] is listed as “restored the trimeric assembly and substrate cooperativity” and the “activity of Arg308Ala mutant with Gdn+” value ([6]; listed as Gdn^+) is listed as “significantly increased”. For the same molecule, the “response of wild-type and truncated species to Gdn+” value [7] was “not responsive”.

B1: synthetic peptide REGNH (peptide)
peptide: REGNH
notes: residues 308-312 of human arginase I, part of the S-shape motif of the C-terminal; Nothing is said of modified ends; also called peptide analogue; REGNH C-terminus analogue peptide; source: synthetic peptide; bought: Biomatik and TopPeptides, Shanghai
For B1, the Kd [8] was 196 ± 25 µM, the Kd (human arginase I [9]) was 177 ± 50 µM and the “inhibition of hargII enzymatic activity (colorimetric measurement of urea from L-arginine), peptide 9.8 μM to 20 mM; IC50” value [10] was 1800 µM. For the same molecule, the “inhibition of hargI enzymatic activity (colorimetric measurement of urea from L-arginine), peptide 9.8 μM to 20 mM; IC50” value (human arginase I [11]) was 2400 µM.
